SMILES strings stand for the structures. Where only a bound is given, the exact number is not on record here.

This passage reports IC50 results from ChEMBL document CHEMBL1139753, “Synthesis, in vitro and in vivo cytotoxicity of 6,7-diaryl-2,3,8,8a-tetrahydroindolizin-5(1H)-ones” (Bioorg Med Chem Lett, 2007).

The test concerns HCT-116. Put plainly: Cytotoxicity against HCT116 cells after 48 hrs. In kind it is functional, cell-based. The note with it: Homo sapiens, HCT-116, 48 h.
As for `COc1ccc(C2=C(c3ccc(OC)cc3)C(=O)N3CCCC3C2)cc1` (stereo not given), the IC50 – broadly, the concentration needed to halve the response being measured – came out at 3.2 µM.

In turn, `COc1ccc(C2=C(c3ccc(C)cc3)C(=O)N3CCCC3C2)cc1` (stereo not given) displayed an IC50 of 10 µM. `COc1ccc(C2=C(c3cccc(Cl)c3)C(=O)N3CCCC3C2)cc1` (stereo not given) showed an IC50 of 8 µM. The same measure for `COc1ccc(C2=C(c3ccc(N=[N+]=[N-])cc3)C(=O)N3CCCC3C2)cc1` (stereo not given): 25 µM; for `O=C1C(c2ccccc2)=C(c2ccc(OCc3ccccc3)cc2)CC2CCCN12` (stereo not given): 8.9 µM; for `COc1ccc(C2=C(c3ccc(OC)c(OC)c3)C(=O)N3CCCC3C2)cc1` (stereo not given): 5 µM. In the case of `COc1ccc(C2=C(c3ccc(OC)c(OC)c3)C(=O)N3CCCC3C2)cc1OC` (stereo not given) it was more than 10 µM; in that of `O=C1N[C@H]2[C@H](CS[C@H]2CCCCC(=O)OC(=O)CCCCCNOc2ccc(C3=C(c4ccccc4)C(=O)N4CCCC4C3)cc2)N1` (stereo not given in full), 17 µM. In the case of `COc1ccc(C2=C(c3ccccc3)C(=O)N3CCCC3C2)cc1` (stereo not given) it was 0.39 µM; in that of `COc1ccc(C2=C(c3ccccc3Cl)C(=O)N3CCCC3C2)cc1` (stereo not given), 8 µM.

The compound `O=C1C(c2ccccc2)=C(c2ccc(O)cc2)CC2CCCN12` (stereo not given) returned an IC50 of 9 µM.

`COc1ccc(C2=C(c3ccc(Cl)cc3)C(=O)N3CCCC3C2)cc1` (stereo not given) displayed an IC50 of 13 µM. In the case of `COc1ccc(C2=C(c3cccc(N)c3)C(=O)N3CCCC3C2)cc1` (stereo not given) it was more than 25 µM. `COc1ccc(C2=C(c3cc(OC)c(OC)c(OCc4ccccc4)c3)CC3CCCN3C2=O)cc1OC` (stereo not given) showed an IC50 of 3.3 µM. In the case of `COc1ccc(C2=C(c3ccc(Cl)c(Cl)c3)C(=O)N3CCCC3C2)cc1` (stereo not given) it was 4 µM.
